From ChEMBL document CHEMBL3751713, “Synthesis and Biological Activity of Mono- and Di-N-acylated Aminoglycosides” (ACS Med Chem Lett, 2015) come the findings set out here.

In brackets after ≈: the same amount, converted by molar mass. A value given as a limit tells only on which side of the number the result lay.

One data set relates to Listeria monocytogenes. In words: Antimicrobial activity against Gram-positive Listeria monocytogenes ATCC 19115 after 16 to 24 hrs by micro-dilution method. The data set is classed as functional. Background: Dilution methods test growth across graded concentrations, often in twofold steps.
For a further data set, the system named is Bacillus subtilis. As to the kind of experiment: Antimicrobial activity against Gram-positive Bacillus subtilis 168 after 16 to 24 hrs by micro-dilution method. The data set is classed as functional.
Data set [1] concerns Staphylococcus aureus. As to the kind of experiment: Antimicrobial activity against Gram-positive methicillin-resistant Staphylococcus aureus 1 after 16 to 24 hrs by micro-dilution method. The class given is functional.
In the next data set the test system is Bacillus cereus. As to the kind of experiment: Antimicrobial activity against Gram-positive Bacillus cereus ATCC 17788 after 16 to 24 hrs by micro-dilution method. The class given is functional.
Data set [2] is described as follows: Drug metabolism assessed as Staphylococcus aureus Bifunctional AAC(6')-1e/APH(2'')-1a mediated compound modification at 100 uM. The data set is classed as ADME.
The subject of data set [3] is Mycolicibacterium smegmatis. As to the kind of experiment: Antimicrobial activity against Mycobacterium smegmatis MC2-155 after 16 to 24 hrs by micro-dilution method. The class given is functional. The settings on record: str. MC2 155.
The nature of data set [4]: Drug metabolism assessed as Mycobacterium tuberculosis Eis mediated compound modification at 100 uM. The data set is classed as ADME.
The subject of data set [5] is Staphylococcus aureus. As to the kind of experiment: Antimicrobial activity against Gram-positive methicillin-resistant Staphylococcus aureus 2 after 16 to 24 hrs by micro-dilution method. The data set is classed as functional.
Data set [6] concerns Bacillus anthracis. As to the kind of experiment: Antimicrobial activity against Gram-positive Bacillus anthracis str. Sterne after 16 to 24 hrs by micro-dilution method. The data set is classed as functional.
Data set [7] relates to Staphylococcus aureus. As to the kind of experiment: Antimicrobial activity against Gram-positive Staphylococcus aureus ATCC 29213 after 16 to 24 hrs by micro-dilution method. The data set is classed as functional.
The test system of data set [8] is Bacillus anthracis. In words: Potency index, ratio MIC of kanamycin to MIC of compound for Bacillus anthracis str. Sterne. The class given is functional.
The nature of data set [9]: Drug metabolism assessed as Escherichia coli AAC(3)-IV mediated compound modification at 100 uM. The class given is ADME.
The test system of another data set is Pseudomonas aeruginosa. As to the kind of experiment: Antimicrobial activity against Gram-negative Pseudomonas aeruginosa PAO1 after 16 to 24 hrs by micro-dilution method. The class given is functional.
The test system of a further data set is Haemophilus influenzae. As to the kind of experiment: Antimicrobial activity against Gram-negative Haemophilus influenzae ATCC 51907 after 16 to 24 hrs by micro-dilution method. The data set is classed as functional.
Data set [10] has as its system Mycolicibacterium smegmatis. As to the kind of experiment: Potency index, ratio MIC of tobramycin to MIC of compound for Mycobacterium smegmatis MC2-155. The class given is functional, str. MC2 155.
Data set [11] has as its system Bacillus anthracis. As to the kind of experiment: Potency index, ratio MIC of tobramycin to MIC of compound for Bacillus anthracis str. Sterne. The data set is classed as functional.
Data set [12] concerns the target T1, Aminoglycoside 3'-phosphotransferase (Escherichia coli, UniProt P00551).
T1 sequence (P00551 whole entry): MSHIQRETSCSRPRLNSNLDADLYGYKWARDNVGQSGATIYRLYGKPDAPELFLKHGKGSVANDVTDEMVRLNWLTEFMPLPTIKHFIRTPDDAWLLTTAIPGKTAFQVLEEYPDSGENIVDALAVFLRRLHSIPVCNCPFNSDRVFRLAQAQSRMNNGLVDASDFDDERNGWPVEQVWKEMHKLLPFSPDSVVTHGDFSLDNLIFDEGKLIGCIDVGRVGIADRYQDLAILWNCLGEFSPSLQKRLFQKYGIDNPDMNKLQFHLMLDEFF
In words: Drug metabolism assessed as Escherichia coli APH(3')-Ia-mediated compound modification at 100 uM. The class given is ADME.

`NCC(=O)NC[C@H]1O[C@H](O[C@H]2[C@H](O)[C@@H](O[C@H]3O[C@H](CO)[C@@H](O)[C@H](N)[C@H]3O)[C@H](N)C[C@@H]2N)[C@H](O)[C@@H](O)[C@@H]1O`: the MIC with Listeria monocytogenes is 150 µg/mL (≈ 277 µM); against Bacillus subtilis, greater than 150 µg/mL; against Staphylococcus aureus [1], greater than 128 µg/mL; against Bacillus cereus it was 150 µg/mL (≈ 277 µM); in data set [3], greater than 128 µg/mL; in the data set on Staphylococcus aureus [5] it was greater than 128 µg/mL. For the same molecule, the MIC against Bacillus anthracis [6] was 2 µg/mL (≈ 3.69 µM); in the data set on Staphylococcus aureus [7] it was 16 µg/mL (≈ 29.5 µM); in the data set with Pseudomonas aeruginosa, greater than 150 µg/mL; with Haemophilus influenzae, 150 µg/mL (≈ 277 µM). Also, the Drug metabolism entry in [2], in data set [4] and in [9] was “metabolite_detected” throughout. Also, in the data set on Bacillus anthracis [8], the Ratio came to 64.

With `NCC[C@H](O)C(=O)NC[C@H]1O[C@H](O[C@H]2[C@H](O)[C@@H](O[C@H]3O[C@H](CO)[C@@H](O)[C@H](N)[C@H]3O)[C@H](N)C[C@@H]2N)[C@H](N)C[C@@H]1O`, the Ratio entry in data set [10] is recorded as “>=16”; with Bacillus anthracis [11], 32. For the same molecule, the MIC in the data set with Listeria monocytogenes is greater than 150 µg/mL; in the data set on Bacillus subtilis, greater than 150 µg/mL; in the data set on Staphylococcus aureus [1], 16 µg/mL (≈ 28.1 µM); with Bacillus cereus it was greater than 150 µg/mL; in [3] it was 8 µg/mL (≈ 14.1 µM); against Staphylococcus aureus [5], greater than 128 µg/mL. For the same molecule, the MIC with Bacillus anthracis [6] is 2 µg/mL (≈ 3.52 µM); in the data set on Staphylococcus aureus [7], 8 µg/mL (≈ 14.1 µM); against Pseudomonas aeruginosa, greater than 150 µg/mL; against Haemophilus influenzae, greater than 150 µg/mL. Further, the Drug metabolism result is reported as “metabolite_detected” in data set [2], “metabolite_detected” in [4], “metabolite_notdetected” in data set [12] and “metabolite_detected” in data set [9].

As for `NCC(=O)NC[C@H]1O[C@H](O[C@H]2[C@H](O)[C@@H](O[C@H]3O[C@H](CO)[C@@H](O)[C@H](N)[C@H]3O)[C@H](N)C[C@@H]2N)[C@H](N)C[C@@H]1O`, the Ratio result was “>=32” in data set [10] and 128 in the data set on Bacillus anthracis [11]. Further, the MIC against Listeria monocytogenes was 18.8 µg/mL (≈ 35.8 µM); in the data set on Bacillus subtilis, 75 µg/mL (≈ 143 µM); in the data set with Staphylococcus aureus [1], 4 µg/mL (≈ 7.63 µM); against Bacillus cereus, 18.8 µg/mL (≈ 35.8 µM); in data set [3] it was 4 µg/mL (≈ 7.63 µM); in the data set with Staphylococcus aureus [5], 128 µg/mL (≈ 244 µM). In addition, the MIC with Bacillus anthracis [6] stood at 0.5 µg/mL (≈ 0.953 µM); in the data set with Staphylococcus aureus [7] it was 8 µg/mL (≈ 15.3 µM); against Pseudomonas aeruginosa, 18.8 µg/mL (≈ 35.8 µM); against Haemophilus influenzae, 75 µg/mL (≈ 143 µM). For the same molecule, the Drug metabolism entry was “metabolite_detected” in [2], “metabolite_detected” in [4], “metabolite_notdetected” in [12] and “metabolite_detected” in data set [9].

For the molecule `NCC[C@H](O)C(=O)NC[C@H]1O[C@H](O[C@H]2[C@H](O)[C@@H](O[C@H]3O[C@H](CO)[C@@H](O)[C@H](N)[C@H]3O)[C@H](N)C[C@@H]2N)[C@H](O)[C@@H](O)[C@@H]1O`, the MIC against Listeria monocytogenes is greater than 150 µg/mL; against Bacillus subtilis, greater than 150 µg/mL; against Staphylococcus aureus [1], 32 µg/mL (≈ 54.6 µM); against Bacillus cereus, greater than 150 µg/mL; in [3], 2 µg/mL (≈ 3.42 µM); with Staphylococcus aureus [5], greater than 128 µg/mL. Also, the MIC against Bacillus anthracis [6] is 4 µg/mL (≈ 6.83 µM); in the data set with Staphylococcus aureus [7] it was 32 µg/mL (≈ 54.6 µM); against Pseudomonas aeruginosa it was 150 µg/mL (≈ 256 µM); with Haemophilus influenzae it was greater than 150 µg/mL. For the same molecule, the Drug metabolism result in data set [2], in [4] and in data set [9] was “metabolite_detected” each time. The Ratio in the data set with Bacillus anthracis [8] is recorded as 32.
